Test results from ChEMBL document CHEMBL1129320, “The enediyne antibiotics” (J Med Chem, 1996).

Tests used:
U-251 = assay: Cytotoxic activity against U-251 MG glioblastoma tumor cell lines.; format: functional, cell-based; conditions: Homo sapiens
U-87 MG = assay: Cytotoxic activity against […] astrocytoma tumor cell lines.; format: functional, cell-based, U-87MG ATCC; conditions: Homo sapiens
UCLA P-3 = assay: Cytotoxic activity against UCLA P-3 lung carcinoma tumor cell lines.; format: functional, cell-based; conditions: Homo sapiens
NHDF = assay: Cytotoxic activity against NHDF normal human dermal fibroblast cell lines.; format: functional, cell-based
CAPAN-1 = assay: Cytotoxic activity against Capan-1 pancreatic carcinoma tumor cell lines.; format: functional, cell-based; conditions: Homo sapiens
HT-29 = assay: Cytotoxic activity against HT-29 Colon carcinoma tumor cell lines.; format: functional, cell-based; conditions: Homo sapiens
SK-MEL-28 = assay: Cytotoxic activity against SK-Mel-28 melanoma tumor cell lines.; format: functional, cell-based; conditions: Homo sapiens
P388 [1] = assay: Cytotoxic activity against P-388 mouse leukemia cell lines.; format: functional, cell-based
HMEC = assay: Cytotoxic activity against HMEC human mammary epithelial normal cell lines.; format: functional, cell-based
OVCAR-4 = assay: Cytotoxic activity against Ovcar-4 ovarian carcinoma tumor cell lines.; format: functional, cell-based; conditions: Homo sapiens
M21 = assay: Cytotoxic activity against M-21 melanoma tumor cell lines.; format: functional, cell-based; conditions: Homo sapiens
TCAF-DAX = assay: Cytotoxic activity against TCAF-DAX T-cell leukemia tumor cell lines.; format: functional, cell-based; conditions: Homo sapiens
H322 = assay: Cytotoxic activity against H-322 lung carcinoma tumor cell lines.; format: functional, cell-based; conditions: Homo sapiens, NCI-H322
OVCAR-3 = assay: Cytotoxic activity against Ovcar-3 ovarian carcinoma tumor cell lines.; format: functional, cell-based; conditions: Homo sapiens
MCF7 = assay: Cytotoxic activity against MCF-7 breast carcinoma tumor cell lines.; format: functional, cell-based; conditions: Homo sapiens
HNBM = assay: Cytotoxic activity against HNBM bone marrow normal cell lines.; format: functional, cell-based; conditions: Homo sapiens
RPMI-8226 = assay: Cytotoxic activity against RPMI-8226 myeloma tumor cell lines.; format: functional, cell-based; conditions: Homo sapiens
M14 = assay: Cytotoxic activity against M-14 melanoma tumor cell lines.; format: functional, cell-based; conditions: Homo sapiens
TCAF = assay: Cytotoxic activity against TCAF T-cell leukemia tumor cell lines.; format: functional, cell-based; conditions: Homo sapiens
HL-60 = assay: Cytotoxic activity against HL-60 promyelocytic leukemia tumor cell lines.; format: functional, cell-based; conditions: Homo sapiens
L1210 [2] = assay: Cytotoxic activity against L-1210 mouse leukemia tumor cell lines.; format: functional, cell-based
B16 = assay: Optimum dose against solid neoplasm B-16 melanoma; format: functional, Mus musculus
Colon 26 (Mus musculus) = assay: Optimum dose against solid neoplasm colon 26
P388 [3] = assay: Optimum dose against P388 murine tumor cell line; format: functional, Mus musculus
L1210 [4] = assay: Optimum dose against murine L1210 leukemia; format: functional, Mus musculus
[5] = Half life at 55 degree Centigrade; format: ADME
[6] = Half life at 37 degree Centigrade; format: ADME
[7] = Half life at 110 degree Centigrade; format: ADME

Compound `O=C(OCCS(=O)(=O)c1ccccc1)N1c2ccc(OCCO)cc2[C@@]23O[C@]24CCC[C@H]3C#C/C=C\C#C[C@H]14` has an IC50 (U-251) of 390 nM, an IC50 (U-87 MG) of 780 nM and an IC50 (UCLA P-3) of 98 nM. It also gave an IC50 (NHDF) of 5000 nM, an IC50 (CAPAN-1) of 3.1 nM and an IC50 (HT-29) of 1600 nM. For the same compound, the IC50 (SK-MEL-28) was 3100 nM, the IC50 (P388 [1]) was 4.6 nM and the IC50 (HMEC) was 6300 nM. It also gave an IC50 (OVCAR-4) of 780 nM, an IC50 (M21) of 1600 nM and an IC50 (TCAF-DAX) of 1.7 nM. It also gave an IC50 (H322) of 390 nM, an IC50 (OVCAR-3) of 780 nM and an IC50 (MCF7) of 780 nM. It also gave an IC50 (HNBM) of 50000 nM, an IC50 (RPMI-8226) of 7.7 nM and an IC50 (M14) of 1600 nM. The IC50 (TCAF) was 1.1 nM, the IC50 (HL-60) was 0.036 nM and the IC50 (L1210 [2]) was 1.3 nM.
For `COC(=O)NC1=C2/C(=C/CSSSC)[C@](O)(C#C/C=C\C#CC2OC2OC(C)C(NOC3CC(O)C(SC(=O)c4c(C)c(I)c(OC5OC(C)C(O)C(OC)C5O)c(OC)c4OC)C(C)O3)C(O)C2OC2CC(OC)C(NC(C)C)CO2)CC1=O` (stereo partly drawn) [CALICHEAMICIN BETA1 I], the OD (B16) was 5 µg/kg, the OD (Colon 26 (Mus musculus)) was 5 µg/kg and the OD (P388 [3]) was 5 µg/kg. The OD (L1210 [4]) was 5 µg/kg.
Compound `CCNC1COC(OC2C(OC3C#C/C=C\C#C[C@]4(O)CC(=O)C(NC(=O)OC)=C3/C4=C/CSSSC)OC(C)C(NOC3CC(O)C(SC(=O)c4c(C)c(I)c(O)c(OC)c4OC)C(C)O3)C2O)CC1OC` (stereo partly drawn) [CALICHEAMICIN ALPHA1 I] has an OD (B16) of 5 µg/kg, an OD (Colon 26 (Mus musculus)) of 5 µg/kg and an OD (P388 [3]) of 5 µg/kg. The OD (L1210 [4]) was 5 µg/kg.
For `COC(=O)NC1=C2/C(=C/CSSSC)[C@](O)(C#C/C=C\C#CC2OC2OC(C)C(NOC3CC(O)C(SC(=O)c4c(C)c(Br)c(OC5OC(C)C(O)C(OC)C5O)c(OC)c4OC)C(C)O3)C(O)C2OC2CC(OC)C(NC(C)C)CO2)CC1=O` (stereo partly drawn) [CALICHEAMICIN BETA1 BR], the OD (B16) was 5 µg/kg, the OD (Colon 26 (Mus musculus)) was 5 µg/kg and the OD (P388 [3]) was 5 µg/kg. The OD (L1210 [4]) was 5 µg/kg.
Work on `CC1=C(C)C(=O)C2=C(C#CCCCC(=O)C#C2)C1=O` yielded a half-life [5] of 0.533 h.
`CNC1COC(OC2C(OC3C#C/C=C\C#C[C@]4(O)CC(=O)C(NC(=O)OC)=C3/C4=C/CSSSC)OC(C)C(NOC3CC(O)C(SC(=O)c4c(C)c(I)c(OC5OC(C)C(O)C(OC)C5O)c(OC)c4OC)C(C)O3)C2O)CC1OC` (stereo partly drawn) [CALICHEAMICIN DELTA1 I] gave an OD (B16) of 5 µg/kg, an OD (Colon 26 (Mus musculus)) of 5 µg/kg and an OD (P388 [3]) of 5 µg/kg. The OD (L1210 [4]) was 5 µg/kg.
With `CCNC1COC(OC2C(OC3C#C/C=C\C#C[C@]4(O)CC(=O)C(NC(=O)OC)=C3/C4=C/CSSSC)OC(C)C(NOC3CC(O)C(SC(=O)c4c(C)c(Br)c(OC5OC(C)C(O)C(OC)C5O)c(OC)c4OC)C(C)O3)C2O)CC1OC` (stereo partly drawn) [CALICHEAMICIN GAMMA1 BR] the OD (B16) was 5 µg/kg, the OD (Colon 26 (Mus musculus)) was 5 µg/kg and the OD (P388 [3]) was 5 µg/kg. The OD (L1210 [4]) was 5 µg/kg.
Compound `COC(=O)NC1=C2/C(=C/CSSSC)[C@](O)(C#C/C=C\C#CC2OC2OC(C)C(NOC3CC(O)C(SC(=O)c4c(C)c(I)c(OC5OC(C)C(O)C(OC)C5O)c(OC)c4OC)C(C)O3)C(O)C2O)CC1=O` (stereo partly drawn) [CALICHEAMICIN ALPHA3 I] has an OD (B16) of 5 µg/kg, an OD (Colon 26 (Mus musculus)) of 5 µg/kg and an OD (P388 [3]) of 5 µg/kg. The OD (L1210 [4]) was 5 µg/kg.
`CC1=C(C)C(=O)C2=C(C#CCCCC(O)C#C2)C1=O` (stereo not drawn) gave a half-life [5] of 2.6 h.
`CNC1C(O[C@H]2C#C/C=C\C#C[C@]3(O)CC(=O)C(NC(=O)OC)[C@]24SCCC=C34)OC(C)C(O)C1O` (stereo partly drawn) showed a T1/2 [6] of 4.5 s.
`Cc1c(C)c(C(=O)OC(C)(C)C)c2c(c1C(=O)OC(C)(C)C)C#CCCCC(O)C#C2` (stereo not drawn) gave a half-life [7] of 74 h.
With `CCN[C@H]1CO[C@@H](O[C@H]2[C@H](O[C@H]3C#C/C=C/C#C[C@@]4(O)CC(=O)C(NC(=O)OC)=C3/C4=C\CSSSC)O[C@H](C)[C@@H](NO[C@H]3C[C@H](O)[C@H](SC(=O)c4c(C)c(I)c(O[C@@H]5O[C@@H](C)[C@H](O)[C@@H](OC)[C@H]5O)c(OC)c4OC)[C@@H](C)O3)[C@@H]2O)C[C@@H]1OC` [CALICHEAMICIN GAMMA1 I] the OD (B16) was 5 µg/kg, the OD (Colon 26 (Mus musculus)) was 5 µg/kg and the OD (P388 [3]) was 5 µg/kg. It also gave an OD (L1210 [4]) of 5 µg/kg.
